Like-named read-outs stand apart in the source and are kept apart here.
Experiments:
[1] = tested on: isolated rat liver mitochondria; experiment: Mitochondrial membrane potential (safranine O); type: biochemical; settings: 30 µM, 10-min incubation, mean ± SD, n ≥ 5; for ΔΨm, % depolarization, CI (g/m): energized with Complex-I substrates (glutamate, malate); for ΔΨm, % depolarization, CII (s/r): energized with succinate in the presence of rotenone
Description: Mitochondria and the mitochondrial permeability transition (MPT) are key players in the cascades of events leading to cell death. Consequently, inhibition of the MPT is a promising target in neuroprotection. On the other hand, depolarization of mitochondria is widely used a predictor of toxicity[72] but depolarization connected with uncoupling of the respiratory chain or stimulation of electron flux can also be cytoprotective. Due to its redox-cycling capability, MB can restore the electron flux in the respiratory chain in the presence of inhibitors of complex-I[74]. […] Consequently, we measured the effect of our conjugates of MB and γ-carbolines on mitochondrial membrane potential under two conditions. (C1) Mitochondria were energized with NADH-dependent substrates of Complex-I (glutamate and malate). (CII) Mitochondria were energized with an FADH2-dependent substrate of Complex II (succinate) in the presence of rotenone, a Complex-I inhibitor. Conjugates (30 μM) were incubated with mitochondria and the effect on mitochondrial membrane potential was measured. For comparison, mitochondria were incubated with MB, MBH2, and Dimebon (30 μM each).
Safranine O (10 µM) was used as a membrane potential probe. Fluorescence intensity at 580 nm (excitation at 520 nm) was measured with Victor3 multi-well fluorescence plate reader (Perkin Elmer, Germany). Mitochondrial protein concentration was 0.2 mg/ml. The medium for measurements contained 75 mM sucrose, 225 mM mannitol, 10 mM K-HEPES, 0.02 mM EGTA, and 1 mM KH2PO4 (pH 7.4, 25 °C). After a 5-min incubation, 5 mM glutamate/malate or 5 mM succinate and 0.5 μM rotenone were added to produce the mitochondrial potential. Then the compounds (30 μM) or the same volume of vehicle (DMSO) were injected into the mitochondrial suspension. After 15–20 min, CaCl2 (12.5 μM) was added to each probe to induce the depolarization of mitochondria and after 5 min 0.5 µM carbonyl cyanide m-chlorophenyl hydrazone (CCCP) was added for maximum depolarization of mitochondria. The level of depolarization (ΔΨm) was calculated from the fluorescence value after a 10-min incubation with 30 µM of compounds (or vehicle) normalized between fluorescence measurements after substrate and CCCP additions.

[2] = tested on: isolated rat liver mitochondria; experiment: Inhibition of iron-induced lipid peroxidation (TBARs); settings: read-out: IC50 of Fe3+-induced LP, LP induced by 0.5 mM Fe3+, mean ± SEM, n ≥ 3
[3] = biological target: T1, equine serum butyrylcholinesterase (BChE) (Equus caballus, UniProt P81908); experiment: biochemical; type: biochemical; settings: mean ± SEM, n ≥ 3
T1 construct: butyrylcholinesterase (BChE, EC 3.1.1.8, from equine serum); purchased Sigma-Aldrich (Germany); host or cells: equine serum
T1 sequence (P81908 whole entry): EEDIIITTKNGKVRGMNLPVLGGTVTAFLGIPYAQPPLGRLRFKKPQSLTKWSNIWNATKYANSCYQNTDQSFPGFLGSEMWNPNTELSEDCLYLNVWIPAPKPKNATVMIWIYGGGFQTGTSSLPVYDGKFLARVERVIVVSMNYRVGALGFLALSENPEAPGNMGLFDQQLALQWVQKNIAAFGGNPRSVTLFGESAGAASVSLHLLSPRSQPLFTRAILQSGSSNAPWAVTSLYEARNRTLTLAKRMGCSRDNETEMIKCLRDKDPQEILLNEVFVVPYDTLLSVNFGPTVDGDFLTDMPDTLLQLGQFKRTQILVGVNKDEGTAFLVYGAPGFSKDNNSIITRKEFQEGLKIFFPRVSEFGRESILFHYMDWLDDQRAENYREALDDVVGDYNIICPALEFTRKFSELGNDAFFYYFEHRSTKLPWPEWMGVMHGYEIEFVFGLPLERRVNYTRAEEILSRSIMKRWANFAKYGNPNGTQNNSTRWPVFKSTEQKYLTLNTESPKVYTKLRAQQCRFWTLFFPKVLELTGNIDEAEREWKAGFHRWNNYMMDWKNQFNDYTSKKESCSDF
Procedure: (§1) Acetylcholinesterase (AChE, EC 3.1.1.7, from human erythrocyte and E. electricus (EeAChE) (type VI-S), butyrylcholinesterase (BChE, EC 3.1.1.8, from equine serum), carboxylesterase (CaE, EC 3.1.1.1, from porcine liver), acetylthiocholine iodide (ATCh), butylthiocholine iodide (BTCh), 5,5′-dithiobis-(2-nitrobenzoic acid) (DTNB), 4-nitrophenyl acetate (4-NPA), were purchased from Sigma-Aldrich (Germany).
(§2) AChE and BChE activities were measured by the Ellman method as described earlier. The assay solution consisted of 0.1 M K/Na phosphate buffer pH 7.5, 25 °C with the addition of 0.33 mM DTNB, 0.02 unit/mL of AChE or BChE, and 1 mM of substrate (ATCh or BTCh, respectively). The assays were carried out with a reagent blank containing all components except AChE or BChE to account for non-enzymatic hydrolysis of substrate. In addition, an enzyme blank was included that contained all components except substrate to account for non-substrate sulfhydryl groups. […] The assay solution consisted of 0.1 M K/Na phosphate buffer pH 8.0, 25 °C with the addition of 1 mM 4-nitrophenyl acetate and 0.02 unit/mL of CaE. Assays were carried out with a blank containing all components except CaE.
(§3) The test compounds were dissolved in DMSO; the incubation mixture contained 2% (v/v) of the solvent. […] The test compounds were added to the assay solution and preincubated at 25°C with the enzymes for 5 min followed by the addition of substrate. A parallel control was made for the assay solution with no inhibitor. […] Each experiment was performed three times. The results were expressed as the mean ± SEM. The reaction rates in the presence and absence of inhibitor were compared, and the percent of residual enzyme activity due to the presence of test compounds was calculated.

[4] = biological target: T2, human erythrocyte acetylcholinesterase (AChE) (Homo sapiens, UniProt P22303); experiment: biochemical; type: biochemical; settings: mean ± SEM, n ≥ 3
T2 construct: Acetylcholinesterase (AChE, EC 3.1.1.7, from human erythrocyte); purchased Sigma-Aldrich (Germany); host or cells: human erythrocytes
T2 sequence (P22303 32-617 isoform P22303-2 limits assumed): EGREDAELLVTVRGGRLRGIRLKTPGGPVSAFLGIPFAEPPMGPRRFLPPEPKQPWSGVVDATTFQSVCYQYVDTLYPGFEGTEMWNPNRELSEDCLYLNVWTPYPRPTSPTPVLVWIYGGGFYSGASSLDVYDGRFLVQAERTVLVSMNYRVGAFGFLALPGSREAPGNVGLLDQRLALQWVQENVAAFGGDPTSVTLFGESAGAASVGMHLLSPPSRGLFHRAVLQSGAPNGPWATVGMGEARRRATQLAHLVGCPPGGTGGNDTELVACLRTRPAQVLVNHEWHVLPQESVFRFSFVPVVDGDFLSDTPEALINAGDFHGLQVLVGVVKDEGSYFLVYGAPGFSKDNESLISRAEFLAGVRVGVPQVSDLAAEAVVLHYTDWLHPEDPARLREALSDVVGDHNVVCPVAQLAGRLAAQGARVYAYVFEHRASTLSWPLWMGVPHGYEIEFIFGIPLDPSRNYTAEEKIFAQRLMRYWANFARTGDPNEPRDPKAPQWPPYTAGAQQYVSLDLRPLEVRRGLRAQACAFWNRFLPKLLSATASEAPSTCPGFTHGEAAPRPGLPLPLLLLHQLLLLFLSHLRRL
Procedure: as §1, §2, §3

[5] = biological target: T3, Electrophorus electricus AChE (EeAChE) (Electrophorus electricus, UniProt O42275); experiment: biochemical; type: biochemical
T3 construct: from human erythrocyte and E. electricus (EeAChE) (type VI-S); purchased Sigma-Aldrich (Germany) type VI-S; host or cells: Electrophorus electricus tissue
T3 sequence (O42275 24-633): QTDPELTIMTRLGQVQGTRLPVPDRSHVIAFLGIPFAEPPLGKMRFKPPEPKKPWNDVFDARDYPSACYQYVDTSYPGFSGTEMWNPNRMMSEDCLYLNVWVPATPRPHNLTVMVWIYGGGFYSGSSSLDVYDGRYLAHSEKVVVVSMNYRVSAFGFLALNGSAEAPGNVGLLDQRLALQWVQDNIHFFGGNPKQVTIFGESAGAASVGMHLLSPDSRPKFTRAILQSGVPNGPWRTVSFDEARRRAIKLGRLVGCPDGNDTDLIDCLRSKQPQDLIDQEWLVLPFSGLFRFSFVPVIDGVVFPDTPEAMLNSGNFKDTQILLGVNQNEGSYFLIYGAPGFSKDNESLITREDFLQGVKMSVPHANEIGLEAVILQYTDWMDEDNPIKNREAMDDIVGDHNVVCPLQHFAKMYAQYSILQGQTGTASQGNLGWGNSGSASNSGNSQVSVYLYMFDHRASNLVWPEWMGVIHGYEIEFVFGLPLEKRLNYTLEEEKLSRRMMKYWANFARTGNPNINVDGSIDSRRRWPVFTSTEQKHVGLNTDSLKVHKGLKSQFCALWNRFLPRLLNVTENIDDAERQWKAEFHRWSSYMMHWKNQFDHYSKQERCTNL
Procedure: as §1, §2, §3

[6] = biological target: T4, porcine liver carboxylesterase (CaE) (Sus scrofa, UniProt Q29550); experiment: CaE inhibition (4-nitrophenyl acetate hydrolysis); type: biochemical; settings: for % inhibition of CaE at 20 µM / inhibition at 20 µM: mean ± SEM, n ≥ 3, n.a. = not active at 20 µM; for IC50: read-out: IC50 CaE
T4 sequence (Q29550 19-566): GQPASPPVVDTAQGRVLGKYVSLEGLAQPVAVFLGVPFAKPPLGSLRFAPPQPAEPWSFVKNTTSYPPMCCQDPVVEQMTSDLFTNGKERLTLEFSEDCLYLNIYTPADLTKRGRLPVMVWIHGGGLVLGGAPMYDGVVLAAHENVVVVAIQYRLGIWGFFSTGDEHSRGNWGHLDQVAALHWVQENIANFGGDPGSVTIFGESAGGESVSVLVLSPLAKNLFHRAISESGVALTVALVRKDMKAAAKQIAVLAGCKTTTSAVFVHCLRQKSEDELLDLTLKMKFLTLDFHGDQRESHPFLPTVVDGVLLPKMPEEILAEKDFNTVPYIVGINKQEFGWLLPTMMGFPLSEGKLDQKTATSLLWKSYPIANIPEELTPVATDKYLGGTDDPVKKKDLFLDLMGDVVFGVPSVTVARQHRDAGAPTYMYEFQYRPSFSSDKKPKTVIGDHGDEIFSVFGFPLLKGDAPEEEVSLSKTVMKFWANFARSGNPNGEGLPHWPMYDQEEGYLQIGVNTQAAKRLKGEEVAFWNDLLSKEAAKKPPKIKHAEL
Procedure: as §1, §2, §3

[7] = mean ± SEM, n ≥ 3, read-out: EeAChE IC50

| SMILES | ΔΨm, % depolarization, CI (g/m) [1] [%] | ΔΨm, % depolarization, CII (s/r) [1] [%] | IC50 [2] [µM] | IC50 [3] [µM] | IC50 [4] [µM] | IC50 [5, 7] [µM] | % inhibition of CaE at 20 µM [6] [%] | IC50 [6] [µM] | inhibition at 20 µM [6] [%] | IC50 [5] [µM] |
| --- | --- | --- | --- | --- | --- | --- | --- | --- | --- | --- |
| CN1CCc2c(c3ccccc3n2CCC(=O)N2c3ccc(N(C)C)cc3Sc3cc(N(C)C)ccc32)C1.Cl.Cl.Cl [Compound 1] | 20 ± 1 | 64 ± 2 | 1.45 ± 0.29 | 5.94 ± 0.55 | 3.17 ± 0.13 | 0.83 ± 0.03 | 21.5 ± 2.3 | > 20 |  |  |
| CCN1CCc2c(c3ccccc3n2CCC(=O)N2c3ccc(N(C)C)cc3Sc3cc(N(C)C)ccc32)C1.Cl.Cl.Cl [Compound 2] | 7 ± 1 | 48 ± 1 | 0.68 ± 0.07 | 2.53 ± 0.22 | 2.95 ± 0.07 | 0.67 ± 0.04 | 18.1 ± 1.7 | > 20 |  |  |
| Cc1ccc2c(c1)c1c(n2CCC(=O)N2c3ccc(N(C)C)cc3Sc3cc(N(C)C)ccc32)CCN(C)C1 [Compound 3] | 29 ± 11 | 67 ± 2 | 2.29 ± 0.47 | 1.82 ± 0.14 | 1.73 ± 0.11 | 1.47 ± 0.08 |  | > 20 | 26 |  |
| CCN1CCc2c(c3cc(C)ccc3n2CCC(=O)N2c3ccc(N(C)C)cc3Sc3cc(N(C)C)ccc32)C1.Cl.Cl.Cl [Compound 4] | 9 ± 1 | 43 ± 3 | 0.71 ± 0.01 | 17.9 ± 1.4 | 4.03 ± 0.36 | 0.65 ± 0.05 | 15.7 ± 1.8 | > 20 |  |  |
| CCCN1CCc2c(c3cc(C)ccc3n2CCC(=O)N2c3ccc(N(C)C)cc3Sc3cc(N(C)C)ccc32)C1.Cl.Cl.Cl [Compound 5] | 17 ± 2 | 69 ± 2 | 0.75 ± 0.01 | 8.42 ± 0.83 | 3.95 ± 0.21 | 0.8 ± 0.07 | 9.8 ± 1.4 | > 20 |  |  |
| Cc1ccc2c(c1)c1c(n2CCC(=O)N2c3ccc(N(C)C)cc3Sc3cc(N(C)C)ccc32)CCN(C(C)C)C1.Cl.Cl.Cl [Compound 6] | 8 ± 2 | 44 ± 5 | 0.58 ± 0.03 | 0.97 ± 0.05 | 7.37 ± 0.42 | 1.07 ± 0.08 | 19.5 ± 1.8 | > 20 |  |  |
| CN1CCc2c(c3cc(F)ccc3n2CCC(=O)N2c3ccc(N(C)C)cc3Sc3cc(N(C)C)ccc32)C1 [Compound 7] | 13 ± 3 | 67 ± 1 | 3.2 ± 0.4 | 10.5 ± 0.9 | 6.86 ± 0.32 | 2.09 ± 0.19 |  | > 20 | 13.8 |  |
| CN(C)c1ccc2nc3ccc(=[N+](C)C)cc-3sc2c1 [MB, methylene blue, reference compound] | 14 ± 7 | 40 ± 9 | 4 ± 0.6 | 11.1 ± 0.1 |  |  |  | > 20 | 12.3 | 0.21 ± 0.02 |
| CN(C)c1ccc2c(c1)Sc1cc(N(C)C)ccc1N2 [MBH2, leucomethylene blue, reference compound] |  | 18 ± 1 | 1.58 ± 0.49 | 10.7 ± 0.2 | 1.76 ± 0.09 |  |  | > 20 | 17.2 | 0.28 ± 0.02 |

Reference: publication PMC6424957 (Scientific Reports, 2019)
